Tests used:
[1] = biological target: Recombinant human Cbl-b (aa 36-427) (Homo sapiens (Human), UniProt Q13191); assay: Cbl-b Biochemical Assay (TR-FRET); details: read-out: TR-FRET hCbl-b IC50
Procedure, shortened: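 IC50 from 4-parameter fit of % inhibition (DMSO max, reference-inhibitor min), duplicate ten-point series. Compound preincubated with 6 nM Cbl-b, then Src-Zap70 (1-2.5 nM)/0.5 mM ATP reaction 60 min RT; EDTA quench with labelled UBE2D2-Ub and streptavidin-terbium, 60 min, HTRF at 520 nm.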

[2] = biological target: Recombinant human c-Cbl (aa 47-435) (Homo sapiens (Human), UniProt P22681); assay: c-Cbl Biochemical Assay (TR-FRET)
Sequence of Recombinant human c-Cbl (aa 47-435) (P22681 47-435): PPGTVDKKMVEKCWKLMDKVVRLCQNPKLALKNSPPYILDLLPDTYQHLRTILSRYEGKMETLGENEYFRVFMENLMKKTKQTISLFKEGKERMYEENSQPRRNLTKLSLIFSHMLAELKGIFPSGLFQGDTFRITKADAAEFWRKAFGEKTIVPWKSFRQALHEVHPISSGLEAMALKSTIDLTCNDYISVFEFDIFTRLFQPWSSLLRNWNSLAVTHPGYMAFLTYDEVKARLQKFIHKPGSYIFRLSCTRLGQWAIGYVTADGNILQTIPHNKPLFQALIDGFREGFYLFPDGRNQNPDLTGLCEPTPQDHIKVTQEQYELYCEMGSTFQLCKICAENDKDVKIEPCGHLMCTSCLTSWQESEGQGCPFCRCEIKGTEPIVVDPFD
Description: Recombinant human c-Cbl (aa 47-435) was expressed in E. coli, purified and biotinylated in vitro. The protein was diluted to 12 nM in freshly prepared assay buffer consisting of 50 mM HEPES, pH 7.0, 100 mM NaCl, 5 mM MgCl2, 0.01% Triton-X 100, 0.01% BSA and 1 mM DTT. Recombinant human Src (aa 254-536)-[…]-Zap-70 (aa 281-297) fusion protein was expressed in E. coli and purified. Protein was diluted in assay buffer to 5-20 nM and ATP was added to 1 mM. Recombinant human UBE2D2([…]) was expressed in E. coli, purified and ubiquitinated and Bodipy labelled in vitro. Protein was diluted to 200 nM in assay buffer without MgCl2 (or Cisbio PPI buffer). Streptavidin-Terbium was added to 2 nM and EDTA to 10 mM, to provide a binding assay mix. Compounds were dissolved in DMSO and diluted to prepare a ten-point half log dilution series. 100 nl of each compound concentration was dispensed in duplicate in a 384 well black assay plate using acoustic dispensing. Wells for maximum signal controls received 100 nl of DMSO only and wells for minimum controls received 100 nl of a reference inhibitor compound at a final assay concentration of […] to produce 100% inhibition. 5 μl of diluted c-cbl enzyme was added to all wells of the assay plate and incubated at RT for 30 min. The enzyme assay was initiated by addition of 5 μl of Src-Zap/ATP mix to all wells, and the plate incubated at RT for 60-90 min. The enzyme reaction was terminated and the binding reaction was initiated by adding 10 μl of binding assay mix to all wells and incubating the plate at RT for 60 min prior to assay read. Final assay conditions consisted of 6 nM c-cbl, 2.5-10 nM Src-Zap70, 0.5 mM ATP, 1% (v/v) DMSO (enzyme reaction) and 100 nM UBE2D2([…])-Ub-FL-BODIPY, 5 mM EDTA, 1 nM Streptavidin-Tb (binding reaction). The HTRF assay signal was measured at 520 nm on an Envision plate reader, with reference signal at 485 or 620 nm. Data was normalized using maximum and minimum assay controls: % Inhibition=100-(100*((maximum control)-unknown)/(maximum control-minimum control)). A 4-parameter dose-response equation was used to fit the normalized dose-response data and derive an IC50 for test compounds.

Sequence of Recombinant human Cbl-b (aa 36-427) (Q13191 36-427): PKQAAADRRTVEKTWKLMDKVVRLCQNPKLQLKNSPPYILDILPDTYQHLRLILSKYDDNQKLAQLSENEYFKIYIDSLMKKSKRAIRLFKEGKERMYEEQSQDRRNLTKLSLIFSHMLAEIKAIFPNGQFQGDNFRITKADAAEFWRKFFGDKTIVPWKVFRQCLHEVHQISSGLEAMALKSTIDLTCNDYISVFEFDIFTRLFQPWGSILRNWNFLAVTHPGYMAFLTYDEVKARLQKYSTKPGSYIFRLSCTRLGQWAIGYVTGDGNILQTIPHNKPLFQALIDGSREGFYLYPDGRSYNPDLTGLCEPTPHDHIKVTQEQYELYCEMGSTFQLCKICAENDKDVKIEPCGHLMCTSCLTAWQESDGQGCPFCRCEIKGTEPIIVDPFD

Compound	IC50 [1] [µM]	IC50 [2] [µM]
C[C@@H](NCC1CC1)c1ccc2c(c1)C(=O)N(c1cc(-c3ccc(C#N)cc3-c3nncn3C)cc(C3CC3)n1)C2 [AJJ-1, (R)-4-(2-Cyclopropyl-6-(6-(1-((cyclopropylmethyl)amino)ethyl)-1-oxoisoindolin-2-yl)pyridin-4-yl)-3-(4-methyl-4H-1,2,4-triazol-3-yl)benzonitrile]	≤ 0.2	≤ 0.2
Cn1cnnc1-c1cc(C#N)ccc1-c1cc(C2CC2)nc(N2Cc3ccc(CNCC(C)(C)F)cc3C2=O)c1 [ALD-2, 4-[2-Cyclopropyl-6-(6-{[(2-fluoro-2-methylpropyl)amino]methyl}-1-oxo-3H-isoindol-2-yl)pyridin-4-yl]-3-(4-methyl-1,2,4-triazol-3-yl)benzonitrile]	≤ 0.2	≤ 0.2
CN(Cc1cc2c(c(C(F)(F)F)c1)CN(c1cc(-c3c(-c4nncn4C)cnn3C)cc(C3CC3)n1)C2=O)CC1(O)CCC1 [AJW-1, 2-{6-Cyclopropyl-4-[2-methyl-4-(4-methyl-1,2,4-triazol-3-yl)pyrazol-3-yl]pyridin-2-yl}-6-({[(1-hydroxycyclobutyl)methyl](methyl)amino}methyl)-4-(trifluoromethyl)-3H-isoindol-1-one]	≤ 0.2	≤ 0.2
Cn1cnnc1-c1cc(C#N)ccc1-c1cc(C2CC2)nc(N2Cc3c(F)cc(CN4CC[C@@H]5OCC[C@@H]54)cc3C2=O)c1 (single isomer, unassigned) [ANG-1]	≤ 0.2	≤ 0.2
Cn1cnnc1-c1cc(C#N)ccc1-c1cc(C2CC2)nc(N2Cc3ccc(CNC4CCC4)cc3C2=O)c1 [ANI-2, 4-(2-{6-[(Cyclobutylamino)methyl]-1-oxo-3H-isoindol-2-yl}-6-cyclopropylpyridin-4-yl)-3-(4-methyl-1,2,4-triazol-3-yl)benzonitrile]	≤ 0.2	≤ 0.2
Cn1cnnc1-c1cc(C#N)ccc1-c1cc(C2CC2)nc(N2Cc3c(Br)cc(CO)cc3C2=O)c1 [ALA-5, 4-{2-[4-Bromo-6-(hydroxymethyl)-1-oxo-3H-isoindol-2-yl]-6-cyclopropylpyridin-4-yl}-3-(4-methyl-1,2,4-triazol-3-yl)benzonitrile]	≤ 0.2	≤ 0.2
Cn1cnnc1-c1cc(C#N)ccc1-c1cc(C2CC2)nc(N2Cc3ccc(C(C)(C)NCC4CC4)cc3C2=O)c1 [ALL-2, 4-[2-Cyclopropyl-6-(6-{2-[(cyclopropylmethyl)amino]propan-2-yl}-1-oxo-3H-isoindol-2-yl)pyridin-4-yl]-3-(4-methyl-1,2,4-triazol-3-yl)benzonitrile]	≤ 0.2	≤ 0.2
Cn1cnnc1-c1cc(C#N)ccc1-c1cc(C2CC2)nc(N2Cc3ccc(CNCC4COC4)cc3C2=O)c1 [AHZ-2, 4-[2-Cyclopropyl-6-(6-{1[(oxetan-3-ylmethyl)amino]methyl}-1-oxo-3H-isoindol-2-yl)pyridin-4-yl]-3-(4-methyl-1,2,4-triazol-3-yl)benzonitrile]	≤ 0.2	≤ 0.2
CN(Cc1ccc2c(c1)C(=O)N(c1cc(-c3ccc(C#N)cc3-c3nncn3C)cc(C3CC3)n1)C2)CC1CC1 [AIX-2, 4-[2-Cyclopropyl-6-(6-{[(cyclopropylmethyl)(methyl)amino]methyl}-1-oxo-3H-isoindol-2-yl)pyridin-4-yl]-3-(4-methyl-1,2,4-triazol-3-yl)benzonitrile]	≤ 0.2	≤ 0.2
Cn1cnnc1-c1cc(C#N)ccc1-c1cc(C2CC2)nc(N2Cc3ccc(CN4CCC(F)(F)CC4)cc3C2=O)c1 [ALU-2, 4-(2-Cyclopropyl-6-{6-[(4,4-difluoropiperidin-1-yl)methyl]-1-oxo-3H-isoindol-2-yl}pyridin-4-yl)-3-(4-methyl-1,2,4-triazol-3-yl)benzonitrile]	≤ 0.2	≤ 0.2
Cn1cnnc1-c1cc(C#N)ccc1-c1cc(C2CC2)cc(N2Cc3ccc(CO)cc3C2=O)c1 [AJP-7, 3′-Cyclopropyl-5′-(6-(hydroxymethyl)-1-oxoisoindolin-2-yl)-2-(4-methyl-4H-1,2,4-triazol-3-yl)-[1,1′-biphenyl]-4-carbonitrile]	0.2 to 1	1 to 10
C[C@H](NCC1CC1)c1ccc2c(c1)C(=O)N(c1cc(-c3ccc(C#N)cc3-c3nncn3C)cc(C3CC3)n1)C2 [AJK-1, (S)-4-(2-Cyclopropyl-6-(6-(1-((cyclopropylmethyl)amino)ethyl)-1-oxoisoindolin-2-yl)pyridin-4-yl)-3-(4-methyl-4H-1,2,4-triazol-3-yl)benzonitrile]	≤ 0.2	≤ 0.2
C[C@H](NC1COC1)c1ccc2c(c1)C(=O)N(c1cc(-c3ccc(C#N)cc3-c3nncn3C)cc(C3CC3)n1)C2 [AOB-2, (S)-4-(2-Cyclopropyl-6-(6-(1-(oxetan-3-ylamino)ethyl)-1-oxoisoindolin-2-yl)pyridin-4-yl)-3-(4-methyl-4H-1,2,4-triazol-3-yl)benzonitrile]	≤ 0.2	≤ 0.2
Cn1cnnc1-c1cc(C#N)ccc1-c1cc(C2CC2)nc(N2Cc3c(F)cc(CN4CC[C@H]5OCC[C@H]54)cc3C2=O)c1 (single isomer, unassigned) [ANH-1]	≤ 0.2	≤ 0.2
Cn1cnnc1-c1cc(C#N)ccc1-c1cc(C2CC2)nc(N2Cc3ccc(CN4CC(F)C4)cc3C2=O)c1 [ALJ-1, 4-(2-Cyclopropyl-6-{6-[(3-fluoroazetidin-1-yl)methyl]-1-oxo-3H-isoindol-2-yl}pyridin-4-yl)-3-(4-methyl-1,2,4-triazol-3-yl)benzonitrile]	≤ 0.2	≤ 0.2
CCOc1cc(-c2ccc(F)cc2-c2nncn2C)cc(N2Cc3c(cc(COCCO)cc3C(F)(F)F)C2=O)n1 [AHQ-4, 2-(6-Ethoxy-4-(4-fluoro-2-(4-methyl-4H-1,2,4-triazol-3-yl)phenyl)pyridin-2-yl)-6-((2-hydroxyethoxy)methyl)-4-(trifluoromethyl)isoindolin-1-one]	≤ 0.2	≤ 0.2
CN1CCC[C@H]1COCc1cc2c(c(C(F)(F)F)c1)CN(c1cc(-c3ccc(F)cc3-c3nncn3C)cc(C3CC3)n1)C2=O [AHR-4, (S)-2-(6-Cyclopropyl-4-(4-fluoro-2-(4-methyl-4H-1,2,4-triazol-3-yl)phenyl)pyridin-2-yl)-6-(((1-methylpyrrolidin-2-yl)methoxy)methyl)-4-(trifluoromethyl)isoindolin-1-one]	≤ 0.2	≤ 0.2
COC[C@H]1CCCN1Cc1cc(F)c2c(c1)C(=O)N(c1cc(-c3ccc(C#N)cc3-c3nncn3C)cc(C3CC3)n1)C2 [APB-2, 4-[2-Cyclopropyl-6-(4-fluoro-6-{[(2R)-2-(methoxymethyl)pyrrolidin-1-yl]methyl}-1-oxo-3H-isoindol-2-yl)pyridin-4-yl]-3-(4-methyl-1,2,4-triazol-3-yl)benzonitrile]	≤ 0.2	≤ 0.2
C[C@@H](c1ccc2c(c1)C(=O)N(c1cc(-c3ccc(C#N)cc3-c3nncn3C)cc(C3CC3)n1)C2)N1CC2(COC2)C1 [AOD-2, 4-(2-Cyclopropyl-6-{6-[(1S)-1-{2-oxa-6-azaspiro[3.3]heptan-6-yl}ethyl]-1-oxo-3H-isoindol-2-yl}pyridin-4-yl)-3-(4-methyl-1,2,4-triazol-3-yl)benzonitrile]	≤ 0.2	≤ 0.2
Cn1cnnc1-c1cc(C#N)ccc1-c1cc(C2CC2)nc(N2Cc3c(cc(CO)c(F)c3F)C2=O)c1 [ALX-9, 4-{2-Cyclopropyl-6-[4,5-difluoro-6-(hydroxymethyl)-1-oxo-3H-isoindol-2-yl]pyridin-4-yl}-3-(4-methyl-1,2,4-triazol-3-yl)benzonitrile]	≤ 0.2	≤ 0.2
Cn1cnnc1-c1cc(C#N)ccc1-c1cc(C2CC2)nc(N2Cc3c(F)cc(CN4CCC[C@](C)(O)C4)cc3C2=O)c1 [AMR-2, 4-[2-Cyclopropyl-6-(4-fluoro-6-{[(3S)-3-hydroxy-3-methylpiperidin-1-yl]methyl}-1-oxo-3H-isoindol-2-yl)pyridin-4-yl]-3-(4-methyl-1,2,4-triazol-3-yl)benzonitrile]	≤ 0.2	≤ 0.2
Cn1cnnc1-c1cc(C#N)ccc1-c1cc(N2Cc3c(F)cc(CO)cc3C2=O)nc(C(F)(F)F)c1 [ALM-3, 4-{2-[4-Fluoro-6-(hydroxymethyl)-1-oxo-3H-isoindol-2-yl]-6-(trifluoromethyl)pyridin-4-yl}-3-(4-methyl-1,2,4-triazol-3-yl)benzonitrile]	≤ 0.2	0.2 to 1
